{
  "source": "patent US20120029078A1",
  "about": "“COMPOSITIONS COMPRISING MYRISTIC ACID AND USES THEREOF” (IMAGENETIX, INC., priority 2010, published 2012)",
  "key": {"[1]": {"tested_on": "IL-4", "experiment": "CD3/CD28-activated cytokine release from human primary T-lymphocytes: IL-4", "type": "cell-based", "conditions": "24 and 48 hours; FIG. 10", "procedure": "(§1) Cytokine release from T-lymphocytes was measured and assessed in order to determine the anti-inflammatory effects of cetylated fatty acids such as 1-TDC and uncetylated fatty acids such as myristic acid. More specifically, the following compounds were tested: 1-TDC, 2-TDC, cetyl myristate (CM), myristic acid (MA), palmityl myristate (PM), palmityl oleate (PO), and palmityl myristoleate (PMO). For this experiment, peripheral blood mononuclear cells were isolated from healthy donors (n=8) with no known medication use by Ficoll-Hypaque density gradient centrifugation. Primary T-lymphocytes were separated from other mononuclear cells (e.g., monocytes) by negative selection using magnetic cell sorting (Dynal, Invitrogen) and pure cell cultures were treated with various doses of tested compounds for 30 minutes. The tested doses were 10^−5-10^−9M. […] Supernatants were collected at 24 and 48 hours and were stored at −80° C. until analyzed. […] The cytokine release was analyzed by xMAP multiplexing technology using Luminex 100 platform. […] The following T-lymphocyte associated cytokines: IFN-γ, IL-2, IL-10, IL-5, and IL-4 were assessed. […] While the validity of this shift is questioned in different diseases and/or infections, the central role of T cells in the progression of inflammation is still evaluated on the cytokine release by these subsets of lymphocytes. […]"}, "[2]": {"tested_on": "TNF-α", "experiment": "LPS-activated cytokine release from human primary monocytes (xMAP Luminex): TNF-α", "type": "cell-based", "procedure": "(§2) Cytokine release from monocytes was measured and assessed in order to determine the anti-inflammatory effects of cetylated fatty acids such as 1-TDC and non-cetylated fatty acids such as myristic acid. Human primary monocytes were provided by healthy subjects (n=7) who were not taking medication, had no medical condition, and no periodontal or gingival inflammation. None of the subjects were smokers and all subjects were of Caucasian origin with an age range of 24-51 years old. All patient samples were obtained after the approval of the Institutional Review Board at Boston University Medical Center.\n(§3) Fresh peripheral venous blood ([…]) was obtained by venipuncture into heparinized (10 U/mL) glass tubes. Monocytes were isolated using Ficoll-Hypaque density gradient centrifugation and separated from the other mononuclear cells (e.g., lymphocytes) by adherence for over 2 hours. Pure cell cultures were treated with various doses (10^−5-10^−9 M) of various types of fatty acids such as 1-TDC and myristic acid for 30 minutes. Vehicle (5% ethyl alcohol), which was used to dissolve the compound into an aqueous preparation, was used as the negative control while dexamethasone (1 nM) was used as the positive control. After incubation with the test compound, half of the samples were treated with LPS from E. coli (100 ng/mL) as the activator of cell cytokine release over various time points (24 hours) at 37° C. under 5% CO2. Supernatants were collected and stored at −80° C. until analyzed. Each sample was prepared in triplicate. Cytokine release (IL-1β, TNF-α, IL-6, IL-12, IL-8, and MCP-1) was analyzed by xMAP multiplexing technology using Luminex 100 Platform. Data was presented as % inhibition over the vehicle's effect of LPS-mediated cell activation. Dexamethasone inhibition was taken as 100% inhibition.\n(§4) Cytokine release data were gathered at 6, 24, and 48 hour time points for monocyte/macrophages (FIGS. 3-5). Each experiment was repeated at least 3 times and data was presented as percentage of inhibition over the vehicle's effect of LPS-mediated cell activation."}, "[3]": {"tested_on": "IL-5", "experiment": "CD3/CD28-activated cytokine release from human primary T-lymphocytes: IL-5", "type": "cell-based", "conditions": "24 and 48 hours; FIG. 11", "procedure": "as §1"}, "[4]": {"tested_on": "IL-8", "experiment": "LPS-activated cytokine release from human primary monocytes (xMAP Luminex): IL-8", "type": "cell-based", "conditions": "24 hours", "procedure": "as §2\n(§5) Fresh peripheral venous blood ([…]) was obtained by venipuncture into heparinized (10 U/mL) glass tubes. Monocytes were isolated using Ficoll-Hypaque density gradient centrifugation and separated from the other mononuclear cells (e.g., lymphocytes) by adherence for over 2 hours. Pure cell cultures were treated with various doses (10^−5-10^−9 M) of various types of fatty acids such as 1-TDC and myristic acid for 30 minutes. […] Supernatants were collected and stored at −80° C. until analyzed. […] Cytokine release (IL-1β, TNF-α, IL-6, IL-12, IL-8, and MCP-1) was analyzed by xMAP multiplexing technology using Luminex 100 Platform. […]"}, "[5]": {"tested_on": "IFN-γ", "experiment": "CD3/CD28-activated cytokine release from human primary T-lymphocytes: IFN-γ", "type": "cell-based", "conditions": "FIG. 7", "procedure": "Cytokine release from T-lymphocytes was measured and assessed in order to determine the anti-inflammatory effects of cetylated fatty acids such as 1-TDC and uncetylated fatty acids such as myristic acid. More specifically, the following compounds were tested: 1-TDC, 2-TDC, cetyl myristate (CM), myristic acid (MA), palmityl myristate (PM), palmityl oleate (PO), and palmityl myristoleate (PMO). For this experiment, peripheral blood mononuclear cells were isolated from healthy donors (n=8) with no known medication use by Ficoll-Hypaque density gradient centrifugation. Primary T-lymphocytes were separated from other mononuclear cells (e.g., monocytes) by negative selection using magnetic cell sorting (Dynal, Invitrogen) and pure cell cultures were treated with various doses of tested compounds for 30 minutes. The tested doses were 10^−5-10^−9M. Vehicle, which was used to dissolve the compounds into an aqueous preparation, was used as the negative control while dexamethasone (1 nM) was used as the positive control. After the incubation with test compounds, half the samples were treated with DynaBeads (Dynal, Invitrogen) coated with CD3 and CD28 antibodies as the activator of cell cytokine release. Cells were incubated over various time points at 37° C. under 5% CO2. Supernatants were collected at 24 and 48 hours and were stored at −80° C. until analyzed. Each sample was prepared in triplicates. The cytokine release was analyzed by xMAP multiplexing technology using Luminex 100 platform. This method allowed simultaneous analyses of all the cytokines proposed in this experiment. The following T-lymphocyte associated cytokines: IFN-γ, IL-2, IL-10, IL-5, and IL-4 were assessed. […] A paradigm shift between the cytokines by Th1 and Th2 indicates a more or less inflammatory process depending on which of these cytokines are increased. While the validity of this shift is questioned in different diseases and/or infections, the central role of T cells in the progression of inflammation is still evaluated on the cytokine release by these subsets of lymphocytes. Data was gathered throughout 24- and 48-hour time points for T-lymphocyte mediated release. Each experiment was repeated at least 3 times and data was presented as %-inhibition over the vehicle's effect of LPS-mediated cell activation."}, "[6]": {"tested_on": "MCP-1", "experiment": "LPS-activated cytokine release from human primary monocytes (xMAP Luminex): MCP-1", "type": "cell-based", "procedure": "as §2, §3, §4"}, "[7]": {"tested_on": "IL-10", "experiment": "CD3/CD28-activated cytokine release from human primary T-lymphocytes: IL-10", "type": "cell-based", "conditions": "24 and 48 hours; FIG. 9", "procedure": "as §1"}, "[8]": {"tested_on": "periodontal disease established by P. gingivalis", "experiment": "Rabbit periodontal disease established by P. gingivalis, topical treatment", "type": "in vivo, New-Zealand White rabbits", "excerpt": "Fifteen New-Zealand White rabbits are distributed into 3 groups: (1)\nNo treatment (5 animals), (2) Placebo treatment (5 animals), and (3) myristic acid treatment (5 animals). In all animals, periodontal disease is established by P. gingivalis application every-other-day over a 6-week period. At 6 weeks, P. gingivalis application is terminated and topical use of the myristic acid and placebo agents is initiated for a second 6 weeks at which time animals are sacrificed. Morphometric, radiographic, and histologic evaluations are performed. Histologic sections are stained with hematoxylin-eosin, and tartrate-resistant acid phosphatase (TRAP) for descriptive histology and osteoclast activity. In addition, osteocalcin staining is used to detect osteoblast activity."}, "[9]": {"tested_on": "IL-1β", "experiment": "LPS-activated cytokine release from human primary monocytes (xMAP Luminex): IL-1β", "type": "cell-based", "conditions": "24 hours", "procedure": "as §2, §3, §4"}, "[10]": {"tested_on": "P. gingivalis A7436", "experiment": "Antibacterial activity: viability of P. gingivalis by Live/Dead BacLight staining and flow cytometry", "type": "cell-based, Porphyromonas gingivalis", "conditions": "for antibacterial capacity (percentage of dead bacteria) compared with chlorhexidine: FIG. 1, positive control chlorhexidine (CHX) 0.04%", "experimental": "P. gingivalis A7436 was cultured on laced blood paromomycin agar plates and then transferred to Schaedler's broth. All cultures were grown at 37° C. under anaerobic conditions. In order to dissolve the 1-TDC and MA in an aqueous medium that can be utilized in carrying out the experiments, the following ingredients were used: ethanol (EtOH) and Methyl-β-cyclodextrin (Sigma-Aldrich, St. Louis, Mo.). More specifically, 750.0 mg of Methyl-β-cyclodextrin was dissolved in 5.0 mL of nano-pure water to get a concentration 150.0 mg/mL (MBC). The MBC solution was stored in the refrigerator at a temperature of 4° C. and was returned to room temperature before use. MA was prepared by dissolving 90.0 mg in 3.0 mL of ETOH, 2.4 mL of MBC, and 24.6 mL of SB in a sterile tube. The entire mixture was placed in a hot bath at 30° C. for 30 minutes. The final concentration of MA was 3.0 mg/mL.\n2×10^7 cells were transferred to 5 mL culture tubes and treated with either 1-TDC or MA (1.0 mg/ml, 0.7 mg/mL, 0.5 mg/mL, 0.3 mg/mL, 0.1 mg/mL) or corresponding vehicle concentrations. A negative control was treated with additional Schaedler's broth. Tubes were incubated in anaerobic jars at 37° C. for several time points between 4-72 hours.\nAfter incubation, viability of the P. gingivalis cells was assessed. 1 mL of each sample was removed and spun down. Bacteria were resuspended in 1 mL of 0.85% NaCl solution. To generate a standard curve, half of the bacteria that was not treated with vehicle or compound were heat-killed for one hour and then mixed with live cells in known proportions (0%, 25%, 50%, 75% and 100% alive). The 100% live cells were used as the negative control. To assess the viability, a fluorescent based kit was used. Live/Dead BacLight Bacterial Viability Kit (Invitrogen L7012) allows for differentiation between alive and dead bacteria at a highly accurate and sensitive way. […]\nSamples were then run on the flow cytometer (FACScan). […] From these established regions, percent viability of the experimental samples were determined."}, "[11]": {"tested_on": "IL-12", "experiment": "LPS-activated cytokine release from human primary monocytes (xMAP Luminex): IL-12", "type": "cell-based", "conditions": "24 hours", "procedure": "as §2, §5"}, "[12]": {"tested_on": "IL-2", "experiment": "CD3/CD28-activated cytokine release from human primary T-lymphocytes: IL-2", "type": "cell-based", "conditions": "24 hour period; FIG. 8", "procedure": "as §1"}, "[13]": {"tested_on": "IL-6", "experiment": "LPS-activated cytokine release from human primary monocytes (xMAP Luminex): IL-6", "type": "cell-based", "conditions": "24 hours", "procedure": "as §2, §5"}},
  "data": [
    {"smiles": "CCCCCCCCCCCCCCCCOC(=O)CCCCCCCCCCCCC", "note": "[Cetyl Myristate, cetyl myristate]", "values": [
      {"measurement": "IL-4 generation by human T cells (activation)", "setting": "[1]", "result": "most potent compound tested"},
      {"measurement": "monocyte-mediated TNF-α release, inhibition (text)", "setting": "[2]; 6 hours", "result": "inhibits"},
      {"measurement": "monocyte-mediated TNF-α release, inhibition (text)", "setting": "[2]; 24 hours, listed as Cetyl myristate", "result": "inhibition on TNF-α continued"},
      {"measurement": "IL-5 release by human T cells (activation)", "setting": "[3]", "result": "most potent activator"},
      {"measurement": "monocyte-mediated IL-8 release, inhibition", "setting": "[4]", "result": "inhibited"},
      {"measurement": "dose dependence of activation of T-cell IFN-γ release", "setting": "[5]; 10^−5-10^−9M", "result": "dose-dependent activation"},
      {"measurement": "monocyte-mediated MCP-1 release, inhibition", "setting": "[6]; 6 hours", "result": "inhibited"},
      {"measurement": "monocyte-mediated MCP-1 release, inhibition", "setting": "[6]; 24 hours", "result": "inhibited"},
      {"measurement": "T-lymphocyte release of IL-10 (activation)", "setting": "[7]", "result": "most potent activator"}
    ]},
    {"smiles": "CCCCCCCCCCCCCC(=O)O", "note": "[Myristic Acid, Myristic acid]", "values": [
      {"measurement": "histomorphometric tissue and bone level vs placebo and no treatment", "setting": "[8]; 6 weeks", "result": "significant changes in tissue and bone level"},
      {"measurement": "inflammatory changes in hematoxylin-eosin stained sections", "setting": "[8]; 6 weeks", "result": "complete reversal of inflammatory changes"},
      {"measurement": "reformation of soft and bone tissues lost to periodontal inflammation", "setting": "[8]; 6 weeks", "result": "reform soft and bone tissues"},
      {"measurement": "progression of gingival inflammation and bone destruction induced by P. gingivalis", "setting": "[8]; 6 weeks after 6 weeks of disease induction", "result": "stops the progression"},
      {"measurement": "osteoclastic activity", "setting": "[8]; 6 weeks, TRAP staining", "result": "significantly suppresses"},
      {"measurement": "osteoblastic activity", "setting": "[8]; 6 weeks, osteocalcin staining", "result": "increased osteoblastic activity"},
      {"measurement": "monocyte-mediated IL-1β release, inhibition", "setting": "[9]", "result": "significantly and dose dependently inhibited"},
      {"measurement": "monocyte-mediated TNF-α release, inhibition (text)", "setting": "[2]; 24 hours", "result": "all cytokines except TNF-α"},
      {"measurement": "antibacterial capacity (percentage of dead bacteria) compared with chlorhexidine", "setting": "[10]", "result": "comparable level of antibacterial capacity as seen with chlorhexidine"},
      {"measurement": "dose dependence of antibacterial activity against P. gingivalis", "setting": "[10]; FIG. 2, increases dramatically at 0.1 mg/ml and higher doses (e.g., 1 mg/ml)", "result": "dose-dependent"},
      {"measurement": "monocyte-mediated IL-8 release, inhibition", "setting": "[4]", "result": "significantly and dose dependently inhibited"},
      {"measurement": "activation of IFN-γ release by T-lymphocytes", "setting": "[5]; over 24 and 48 hours", "result": "capacity to activate IFN-γ release by T cells and this effect increased over time"},
      {"measurement": "monocyte-mediated IL-12 release, inhibition", "setting": "[11]", "result": "significantly and dose dependently inhibited"},
      {"measurement": "monocyte-mediated MCP-1 release, inhibition", "setting": "[6]; 24 hours", "result": "significantly and dose dependently inhibited"},
      {"measurement": "effect on T-lymphocyte IL-2 production", "setting": "[12]", "result": "activated"},
      {"measurement": "monocyte-mediated IL-6 release, inhibition", "setting": "[13]", "result": "significantly and dose dependently inhibited"}
    ]},
    {"smiles": "CCCCCCCCCCCCCCCCOC(=O)CCCCCCCCCCCCC", "note": "[Palmityl Myristate, palmityl myristate]", "values": [
      {"measurement": "monocyte-mediated TNF-α release, inhibition (text)", "setting": "[2]; 24 hours, listed as palmityl myristate", "result": "blocked TNF-α release, however the inhibition was weaker compared to cetyl myristate"}
    ]},
    {"smiles": "CCCC/C=C\\CCCCCCCC(=O)OCCCCCCCCCCCCCCCC", "note": "[Palmityl Myristoleate, palmityl myristoleate]", "values": [
      {"measurement": "monocyte-mediated IL-1β release, inhibition", "setting": "[9]", "result": "significantly and fully inhibited"},
      {"measurement": "monocyte-mediated TNF-α release, inhibition (text)", "setting": "[2]; 24 hours", "result": "significantly and fully inhibited"},
      {"measurement": "effect on IFN-γ production by T-lymphocytes", "setting": "[5]; 24 hour mark", "result": "inhibit"},
      {"measurement": "effect on IFN-γ production by T-lymphocytes", "setting": "[5]; 48 hour mark", "result": "inhibit"}
    ]},
    {"smiles": "CCCCCCCC/C=C\\CCCCCCCC(=O)OCCCCCCCCCCCCCCCC", "note": "[Palmityl Oleate, palmityl oleate]", "values": [
      {"measurement": "monocyte-mediated IL-1β release, inhibition", "setting": "[9]", "result": "significantly and fully inhibited"},
      {"measurement": "monocyte-mediated TNF-α release, inhibition (text)", "setting": "[2]; 24 hours", "result": "significantly and fully inhibited"},
      {"measurement": "effect on IFN-γ production by T-lymphocytes", "setting": "[5]; 24 hour mark", "result": "inhibit"}
    ]},
    {"smiles": "CCCCCCCCCCCCCC(=O)[O-].[Na+]", "note": "[sodium myristate]", "values": [
      {"measurement": "antibacterial capacity (percentage of dead bacteria) compared with chlorhexidine", "setting": "[10]", "result": "comparable level of antibacterial capacity as seen with chlorhexidine"}
    ]}
  ]
}
